{"source": "patent US20160106719A1", "about": "“Transplantation Adjuvant in Cell Therapy Using Neural Progenitor Cells” (SUMITOMO DAINIPPON PHARMA CO., LTD., priority 2013, published 2016)", "key": {"[1]": {"system": "TH+ neurons derived from mouse iPS cells", "assay": "In vitro survival of TH+ neurons with caspase 3 expression as index of apoptosis", "format": "cell-based", "conditions": "control 18.0±5.9%; no significant difference among four groups", "experimental": "After the cell sorting, in order to induce the reaggregation of the cells, a PSA-NCAM^+ cell group was seeded in a DMEM/F12 medium (manufactured by Wako Pure Chemical Industries, Ltd.) in a 96-well plate at a concentration (cell density) of 20000 cells/well. The DMEM/F12 medium contained 1% N-2 supplement, 200 nM ascorbic acid, 2% B27 supplement (manufactured by Invitrogen), 0.5 mM L-glutamine and 1% P/S. In order to prevent apoptosis, a ROCK inhibitor, Y-27632 (manufactured by Wako Pure Chemical Industries, Ltd.), was used at a concentration of 30 μM during the cell sorting process and the following overnight cultivation. On day 10 after starting the SFEB, any one of valproic acid (VPA) (manufactured by Sigma-Aldrich), zonisamide (ZNS) sodium salt (manufactured by Sumitomo Dainippon Pharma Co., Ltd.), 17β estradiol (E2) (manufactured by Sigma-Aldrich), a glial cell line derived neurotrophic factor (GDNF) (manufactured by R & D Systems) and PBS(-) was added to the medium for 4 days. Each of VPA, ZNS and E2 was used at three different concentrations. Specifically, the concentration of VPA was 0.01 mM, 0.1 mM or 1 mM, the concentration of ZNS was 1 μM, 10 μM or 100 μM, and the concentration of E2 was 1 nM, 10 nM or 100 nM. GDNF was added at a concentration of […] to be used as a positive control. […]"}, "[2]": {"system": "grafts derived from mouse iPS cells", "assay": "Transplantation experiment of mouse iPS cell-derived dopamine neural progenitor cells into striatum of SD rats (immunohistochemistry of grafts)", "format": "in vivo", "conditions": "four weeks after transplantation", "experimental": "Ten-week-old Sprague-Dawley rats (SD rats, available from Shimizu Laboratory Supplies Co., Ltd.) were handled in accordance with the Guidelines for Animal Experiments of Kyoto University. Each SD rat was anesthetized, and donor cells were transplanted by stereotaxic injection into striatums on both sides. Two cell aggregates (containing 3.1×10^5 cells on average) obtained on day 9 after starting the SFEB were collected in 1 μl of PBS(-) so as to be used as the donor cells for the transplantation in each tract. To the PBS(-), Y-27632 was added at a final concentration of […]. Thereafter, intraperitoneal injection of VPA (150 mg/kg/day), ZNS sodium salt (30 mg/kg/day), E2 (80 μM/kg/day) or a saline was conducted from two days before transplanting the donor cells until a day of necropsy. For immunosuppression, cyclosporin A (CsA, manufactured by Wako Pure Chemical Industries, Ltd.) was administered to all the SD rats at a daily dose of 10 mg/kg. Four weeks after the transplantation of the donor cells, the brains of the SD rats were washed and fixed by intracardially perfusing 4% paraformaldehyde under deep anesthesia. On the day of necropsy, a blood sample was collected from each SD rat one hour after the final injection of the test compound or CsA. Such a sample was sent to SRL, Inc. (Tokyo, Japan) where the blood concentration of the administered drug (test compound) was measured.\nIn an in vitro experiment, a cell aggregate treated with any of the above-described test compounds on day 14 after starting the SFEB was fixed with 4% paraformaldehyde. Thereafter, the fixed cell aggregate was frozen and sliced into thin sections each having a thickness of 10 μM by using a microtome for immunocytochemistry. On the other hand, in an in vivo experiment (transplantation experiment), the brain of a SD rat or a SCID rat was taken out after the transplantation experiment to be fixed again with 4% paraformaldehyde for 2 days. Thereafter, the fixed brain of the SD rat or SCID rat was cryopreserved in 30% sucrose for 3 days, frozen, and sliced into thin sections each having a thickness of 40 μM for immunohistochemistry. The frozen sections of the sphere (spherical cell mass) and the brain were subjected to a permeabilization and blocking treatment in PBS(-) for 1 hour at room temperature to be used as samples. The PBS(-) contained 0.3% Triton-X and 2% donkey serum. Thereafter, each of the sections was incubated overnight together with a primary antibody at 4° C. Primary antibodies used in this example are a rabbit anti-tyrosine hydroxylase antibody (dilution rate of 1:400, TH; manufactured by Millipore), a mouse anti-TH antibody (dilution rate of 1:200, manufactured by Millipore), a sheep anti-TH antibody (dilution rate of 1:400, manufactured by Millipore), a mouse anti-Tubβ3 antibody (dilution rate of 1:1000, Tuj1; manufactured by Covance Inc.), a rat anti-NURR1 antibody (dilution rate of 1:1000, KAN Research Institute, Inc., Kobe, Japan), a rabbit anti-Ki67 antibody (dilution rate of 1:1000, manufactured by Novocastra: NCL-Ki67p), a rabbit anti-caspase 3 antibody (dilution rate of 1:500, manufactured by Santa Cruz Biotechnology, Inc.), a rat anti-M2M6 antibody (dilution rate of 1:50, manufactured by Developmental Study Hybridoma Bank), a mouse anti-Nestin antibody (dilution rate of 1:50; manufactured by Millipore), a rabbit anti-Pitx3 antibody (dilution rate of 1:500; manufactured by Chemicon International Inc.), a goat […] antibody (dilution rate of 1:500, Foxa2; manufactured by Santa Cruz Biotechnology, Inc.), a mouse anti-human Nuclei antibody (dilution rate of 1:1000; manufactured by Millipore), and a mouse anti-NeuN antibody (dilution rate of 1:500, manufactured by Chemicon International Inc.). After washing with PBS (0.05% Tween-20) three times, the resultant sample was incubated with an Alexa Fluor-conjugated secondary antibody for 1 hour at room temperature. […]"}}}
{"smiles": "CCCC(CCC)C(=O)[O-].[Na+]", "note": "[VPA, sodium 2-propylpentanoate]", "values": [{"measurement": "ratio of dopaminergic neurons undergoing apoptosis (TH+ neurons expressing caspase 3)", "setting": "[1]", "result": "low"}, {"measurement": "volume of graft", "setting": "[2]; VPA 150 mg/kg/day i.p., control 9.76±3.19 mm^3, no significant difference", "result": "4.33±2.14", "unit": "mm^3"}, {"measurement": "ratio of NeuN+ cells to the number of all the cells in a graft", "setting": "[2]; VPA 150 mg/kg/day i.p., control 57.7±9.4%", "result": "77.9±5.1", "unit": "%"}, {"measurement": "number of TH+ cells in a graft", "setting": "[2]; VPA 150 mg/kg/day i.p., control 393±311 cells", "result": "1396±864", "unit": "cells"}, {"measurement": "ratio of TH+ cells that were FOXA2+", "setting": "[2]; VPA 150 mg/kg/day or ZNS 30 mg/kg/day i.p., control 24.7±9.3%", "result": "81.8±33.6", "unit": "%"}, {"measurement": "number of midbrain dopaminergic neurons (TH+ FOXA2+) in a graft", "setting": "[2]; VPA 150 mg/kg/day or ZNS 30 mg/kg/day i.p., control 97±76 cells", "result": "984±770", "unit": "cells"}]}
